Like-named read-outs stand apart in the source and are kept apart here.
Key:
[1] = test system: NS5A chimeric genotype 1b Con1 replicon with genotype 3a S52 strain NS5A gene; experiment: Replicon assay, genotype 3a NS5A chimera; type: cell-based, HCV; details: Hepatitis C virus
[2] = test system: NS5A chimeric genotype 2a JFH-1 replicon with genotype 2b MD2b-1 strain NS5A gene (M31 present); experiment: Replicon assay, genotype 2b NS5A chimera; type: cell-based, HCV; details: Hepatitis C virus
How it was run: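 EC50 was fitted by non-linear regression to Renilla luciferase signal after 72 h of exposure to 3-fold serially diluted compound (10 mM DMSO stocks). Controls were DMSO (none) and ITMN-191 above 100×EC50 (full). Chimeric 2a replicons were used either stable or transiently transfected into Huh-Lunet cells.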

[3] = test system: NS5A chimeric genotype 1b Con1 replicon with genotype 4a ED43 strain NS5A gene; experiment: Replicon assay, genotype 4a NS5A chimera; type: cell-based, HCV; details: Hepatitis C virus
[4] = test system: stable HCV 1b RLuc replicon cells (dicistronic genotype 1b Con1 replicon); experiment: Renilla luciferase HCV replicon reporter assay, genotype 1b; type: cell-based; details: Hepatitis C virus, 72 h, stable 1b Con1 RLuc replicon cells, 72 hours; read-out: 1b
How it was run: (§1)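 72 h compound exposure (3-fold dilutions from 10 mM DMSO stocks) of replicon cells: stable dicistronic RLuc 1a H77, 1b Con1, 2a JFH-1 (NS5A L31); J6-NS5A chimera in JFH-1 (M31), transient in Huh-Lunet or stable. Renilla luciferase read-out, non-linear regression → EC50. DMSO negative control.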

[5] = test system: stable HCV 2a JFH-1 Rluc replicon cells (L31 present in NS5A); experiment: Renilla luciferase HCV replicon reporter assay, genotype 2a JFH-1; type: cell-based; details: Hepatitis C virus
How it was run: as §1

[6] = test system: NS5A chimeric genotype 2a JFH-1 replicon with genotype 2a J6 strain NS5A gene (M31 present); experiment: Replicon assay, genotype 2a J6 NS5A chimera; type: cell-based, HCV; details: Hepatitis C virus
How it was run: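 First, 3-fold serial dilutions of compound went onto replicon cells, DMSO serving as no-inhibition control and ITMN-191 at >100×EC50 as positive control. Next came 72 h incubation, lysis and Renilla luciferase measurement. Finally, EC50 was calculated by non-linear regression; replicons covered genotypes 1a H77, 1b Con1, 2a JFH-1 (L31) and J6-NS5A chimera (M31).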

[7] = test system: stable HCV 1a RLuc replicon cells (dicistronic genotype 1a H77 replicon); experiment: Renilla luciferase HCV replicon reporter assay, genotype 1a; type: cell-based; details: Hepatitis C virus, 72 h, stable 1a H77 RLuc replicon cells
How it was run: as §1

[8] = read-out: 3a (s) (nM), genotype 3a NS5A chimeric replicon, stable replicon cells (s)
[9] = read-out: 3a (s), (s), activity range
[10] = 2BS, read-out: 2b (s), stably replicating replicon cells (s), activity range
[11] = read-out: 2b (s) (nM), genotype 2b MD2b-1 NS5A chimeric replicon (M31), stably replicating replicon cells (s)
[12] = read-out: 4a (s) (nM), genotype 4a NS5A chimeric replicon, stable replicon cells (s)
[13] = read-out: 4a (s), (s), activity range
[14] = read-out: 2a JFH (nM), genotype 2a JFH-1 replicon (L31 in NS5A), stable cells
[15] = read-out: 2a JFH, stable 2a JFH-1 Rluc replicon cells, L31 in NS5A, activity range
[16] = read-out: 2a J6 (t) (nM), genotype 2a J6 NS5A chimeric replicon (M31), transiently transfected (t) into Huh-Lunet cells
[17] = read-out: 2a J6 (t), transiently transfected (t) into Huh-Lunet cells, activity range

Compound	EC50 [1, 8]	EC50 [1, 9]	EC50 ([1]; read-out: 3a (t) (nM), genotype 3a NS5A chimeric replicon, transiently transfected (t))	EC50 ([1]; read-out: 3a (t), transiently transfected (t) into Huh-Lunet cells, activity range)	EC50 [2, 10]	EC50 [2, 11]	EC50 [3, 12]	EC50 [3, 13]	EC50 [4]	EC50 [5, 14]	EC50 [5, 15]	EC50 [6, 16]	EC50 [6, 17]	EC50 [7]	EC50 ([7]; activity range)
COC(=O)N[C@H](C(=O)N1[C@@H](C)CC[C@H]1c1nc(C2CC2)c(-c2ccc3c(c2)COc2cc4c(ccc5nc([C@@H]6CC[C@H](C)N6C(=O)[C@@H](NC(=O)OC)[C@@H](C)OC)[nH]c54)cc2-3)[nH]1)[C@@H](C)OC [GC, Methyl [(2S,3R)-1-{(2S,5S)-2-[9-(4-cyclopropyl-2-{(2S,5S)-1-[N-(methoxycarbonyl)-O-methyl-L-threonyl]-5-methylpyrrolidin-2-yl}-1H-imidazol-5-yl)-1,11-dihydroisochromeno[4′,3′:6,7]naphtho[1,2-d]imidazol-2-yl]-5-methylpyrrolidin-1-yl}-3-methoxy-1-oxobutan-2-yl]carbamate]	0.14 nM	0.1 to 0.999 nM	0.032 nM	< 0.1 nM	0.1 to 0.999 nM	0.117 nM	0.013 nM	< 0.1 nM	0.022 nM	0.063 nM	< 0.1 nM	0.181 nM	0.1 to 0.999 nM	0.013 nM	< 0.1 nM
CC[C@H]1CC[C@@H](c2ncc(-c3ccc4c(c3)COc3cc5c(ccc6nc([C@@H]7CC[C@H](C)N7C(=O)[C@@H](NC(=O)OC)[C@@H](C)OC)[nH]c65)cc3-4)[nH]2)N1C(=O)[C@H](C)NC(=O)OC [GP]	0.571 nM	0.1 to 0.999 nM			1 to 44 nM	2.33 nM	0.031 nM	< 0.1 nM	0.027 nM	0.027 nM	< 0.1 nM	1.07 nM	1 to 44 nM	0.018 nM	< 0.1 nM
CC[C@H]1CC[C@@H](c2nc3ccc4cc5c(cc4c3[nH]2)OCc2cc(-c3cnc([C@@H]4CC[C@H](CC)N4C(=O)[C@@H](NC(=O)OC)C4CCOCC4)[nH]3)ccc2-5)N1C(=O)[C@@H](NC(=O)OC)C(C)C [II]	0.701 nM	0.1 to 0.999 nM			0.1 to 0.999 nM	0.197 nM	0.016 nM	< 0.1 nM	0.033 nM	0.029 nM	< 0.1 nM	0.209 nM	0.1 to 0.999 nM	0.024 nM	< 0.1 nM
CC[C@H]1CC[C@@H](c2ncc(-c3ccc4c(c3)COc3cc5c(ccc6nc([C@@H]7CC[C@H](C)N7C(=O)[C@@H](NC(=O)OC)[C@@H](C)OC)[nH]c65)cc3-4)[nH]2)N1C(=O)[C@@H](NC(=O)OC)[C@@H](C)OC [EM, methyl[(2S,3R)-1-{(2S,5S)-2-ethyl-5-[5-(2-{(2S,5S)-1-[N-(methoxycarbonyl)-O-methyl-L-threonyl]-5-methylpyrrolidin-2-yl}-1,11dihydroisochromeno[4′,3′:6,7]naphtho[1,2-d]imidazol-9-yl)-1H-imidazol-2-yl]pyrrolidin-1-yl}-3-methoxy-1-oxobutan-2-yl]carbamate]	0.061 nM	< 0.1 nM			< 0.1 nM	0.082 nM	0.008 nM	< 0.1 nM	0.02 nM	0.012 nM	< 0.1 nM	0.043 nM	< 0.1 nM	0.013 nM	< 0.1 nM
COC(=O)N[C@H](C(=O)N1[C@@H](C)CC[C@H]1c1nc2ccc3cc4c(cc3c2[nH]1)OCc1cc(-c2cnc([C@@H]3CC[C@H](C)N3C(=O)[C@@H](NC(=O)OC)[C@@H](C)O)[nH]2)ccc1-4)C(C)C [GY]	0.048 nM	< 0.1 nM			0.1 to 0.999 nM	0.311 nM	0.015 nM	< 0.1 nM	0.032 nM	0.013 nM	< 0.1 nM	0.06 nM	< 0.1 nM	0.023 nM	< 0.1 nM
CC[C@H]1C[C@@H](c2nc3ccc4cc5c(cc4c3[nH]2)OCc2cc(-c3cnc([C@@H]4CC[C@H](C)N4C(=O)[C@@H](NC(=O)OC)C(C)C)[nH]3)ccc2-5)N(C(=O)[C@H](C)NC(=O)OC)C1 [HK]	0.705 nM	0.1 to 0.999 nM			1 to 44 nM	11.5 nM	0.02 nM	< 0.1 nM	0.026 nM	0.034 nM	< 0.1 nM	0.878 nM	0.1 to 0.999 nM	0.017 nM	< 0.1 nM
COC(=O)N[C@H](C(=O)N1CCC[C@H]1c1ncc(-c2ccc3c(c2)COc2cc4c(ccc5nc([C@@H]6CCCN6C(=O)[C@@H](NC(=O)OC)C6CCOCC6)[nH]c54)cc2-3)[nH]1)C1CCOCC1 [HI]	0.447 nM	0.1 to 0.999 nM			0.1 to 0.999 nM	0.203 nM	0.111 nM	0.1 to 0.999 nM	0.416 nM	0.041 nM	< 0.1 nM	0.2 nM	0.1 to 0.999 nM	0.203 nM	0.1 to 0.999 nM
CC[C@H]1CC[C@@H](c2ncc(-c3ccc4c(c3)COc3cc5c(ccc6nc([C@@H]7C[C@@H]8CCC[C@@H]8N7C(=O)[C@@H](NC(=O)OC)C(C)C)[nH]c65)cc3-4)[nH]2)N1C(=O)[C@@H](NC(=O)OC)C1CCOCC1 [IN]	0.212 nM	0.1 to 0.999 nM			0.1 to 0.999 nM	0.109 nM	0.023 nM	< 0.1 nM	0.028 nM	0.03 nM	< 0.1 nM	0.044 nM	< 0.1 nM	0.021 nM	< 0.1 nM
COC(=O)N[C@@H](C)C(=O)N1[C@@H](C)CC[C@H]1c1ncc(-c2ccc3c(c2)COc2cc4c(ccc5nc([C@@H]6CC[C@H](C)N6C(=O)[C@@H](NC(=O)OC)C(C)C)[nH]c54)cc2-3)[nH]1 [HL]	0.127 nM	0.1 to 0.999 nM			1 to 44 nM	3.72 nM	0.02 nM	< 0.1 nM	0.021 nM	0.019 nM	< 0.1 nM	1.43 nM	1 to 44 nM	0.017 nM	< 0.1 nM
CC[C@H]1CC[C@@H](c2nc3ccc4cc5c(cc4c3[nH]2)OCc2cc(-c3cnc([C@@H]4C[C@H](C)CN4C(=O)[C@@H](NC(=O)OC)C(C)C)[nH]3)ccc2-5)N1C(=O)[C@@H](NC(=O)OC)C1CCOCC1 [IS]	0.174 nM	0.1 to 0.999 nM			< 0.1 nM	0.083 nM	0.015 nM	< 0.1 nM	0.021 nM	0.018 nM	< 0.1 nM	0.052 nM	< 0.1 nM	0.017 nM	< 0.1 nM

— patent publication US10800789B2, “Antiviral compounds” (Gilead Pharmasset LLC, priority 2012, dated 2020)
